#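 Assay format: 96-well plates, 48-hour exposure. TGI: concentration producing complete growth inhibition.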 *1 amine or outer side, *2 acyl side, *3 side chain or, on linkers, in order; H or OH if unused. Where a SMILES comes first, the peptide text is derived from it. [ ]: non-standard residue; d: D form. The star is where a group is joined. ξ: configuration not given here. γGlu = O=C(O)[CH](CCC(=O)[*:2])N[*:1]; X22 = O=C(C(CC(O)CO)O[*:1])[*:2]; Ile(3ξ) = CCC(C)[C@H](N)C(=O)O; NMeV = CN[C@H](C(=O)O)C(C)C; NMeA = CN[C@@H](C)C(=O)O; βAla = NCCC(=O)O; NHOH = ON*
# Tests used:
# Assay in all cases: NCI anticancer screen, dose series, 48 h
# 786-0 renal = system: 786-0 renal
# CCRF-CEM leukemia = system: CCRF-CEM leukemia
# DLD-1 colon = system: DLD-1 colon
# EKVX NSCLC = system: EKVX NSCLC
# HCC-2998 colon = system: HCC-2998 colon
# HCT-15 colon = system: HCT-15 colon
# K-562 leukemia = system: K-562 leukemia
# LOX IMVI melanoma = system: LOX IMVI melanoma
# M14 melanoma = system: M14 melanoma
# NCI-H226 lung = system: NCI-H226 lung
# NCI-H23 lung = system: NCI-H23 lung
# OVCAR-3 ovarian = system: OVCAR-3 ovarian
# TK-10 renal = system: TK-10 renal
# UACC-257 melanoma = system: UACC-257 melanoma
# OVCAR-5 ovarian = system: OVCAR-5 ovarian
# BT-549 breast = system: BT-549 breast
# HS 578T breast = system: HS 578T breast
# MDA-MB-231 breast = system: MDA-MB-231 breast
# MDA-MB-435 = system: MDA-MB-435
# NCI/ADR-RES ovarian = system: NCI/ADR-RES ovarian
Compound,TGI (786-0 renal) [µM],TGI (CCRF-CEM leukemia) [µM],TGI (DLD-1 colon) [µM],TGI (EKVX NSCLC) [µM],TGI (HCC-2998 colon) [µM],TGI (HCT-15 colon) [µM],TGI (K-562 leukemia) [µM],TGI (LOX IMVI melanoma) [µM],TGI (M14 melanoma) [µM],TGI (NCI-H226 lung) [µM],TGI (NCI-H23 lung) [µM],TGI (OVCAR-3 ovarian) [µM],TGI (TK-10 renal) [µM],TGI (UACC-257 melanoma) [µM],TGI (OVCAR-5 ovarian) [µM],TGI (BT-549 breast) [µM],TGI (HS 578T breast) [µM],TGI (MDA-MB-231 breast) [µM],TGI (MDA-MB-435) [µM],TGI (NCI/ADR-RES ovarian) [µM]
C[N+]1(C)C[C@@H](O)C[C@@H]1C(=O)[O-],> 100,> 100,> 100,> 100,> 100,> 100,> 100,> 100,> 100,> 100,> 100,> 100,> 100,> 100,–,–,–,–,–,–
CSc1nc2nc(C(O)C(O)C(O)CO)cnc2c(=O)[nH]1 (configuration not stated),> 100,> 100,> 100,> 100,> 100,> 100,–,> 100,> 100,> 100,> 100,> 100,> 100,> 100,> 100,–,–,–,–,–
CC(=O)NC(CCCNC(=O)OCc1ccccc1)C(=O)O (configuration not stated),> 100,> 100,> 100,> 100,> 100,> 100,> 100,> 100,> 100,> 100,> 100,> 100,> 100,> 100,> 100,–,–,–,–,–
CCOC(=O)CNC(=O)C(CCC(=O)NO)NC(=O)CCC(N)C(=O)O (configuration not stated) (γGlu-Glu(NHOH)-Gly-OEt; configuration not given here),> 100,> 100,–,> 100,> 100,> 100,> 100,> 100,> 100,> 100,> 100,> 100,> 100,> 100,> 100,> 100,> 100,> 100,> 100,> 100
CC1OC(OCC2OC(Oc3ccc(C4CC(=O)c5c(O)cc(O)cc5O4)cc3O)C(O)C(O)C2O)C(O)C(O)C1O (configuration not stated),> 100,> 100,–,> 100,> 100,> 100,> 100,> 100,> 100,> 100,> 100,> 100,> 100,> 100,> 100,> 100,> 100,> 100,> 100,> 100
CCOC(=O)C1=C(c2ccccc2)N(C(C)=O)Cc2ccccc21,> 100,78.7,> 100,> 100,> 100,> 100,> 100,33.2,35,50.5,34.5,43.2,> 100,34.6,> 100,–,–,–,–,–
CCC(C)[C@@H]1NC(=O)[C@@H]2CCCN2C(=O)C(CC(O)CO)OC(=O)CCNC(=O)[C@H](C)N(C)C(=O)[C@H](C(C)C)N(C)C1=O (some centres not stated) (cyclo([Ile(3ξ)][NMeV][NMeA][βAla][X22]P)),> 100,> 100,> 100,–,–,> 100,> 100,> 100,> 100,> 100,> 100,> 100,> 100,> 100,> 100,–,–,–,–,–
O=C(c1ccccc1)N1CCC(Nc2nccs2)O1 (configuration not stated),> 10,> 10,–,> 10,> 10,> 10,> 10,> 10,> 10,> 10,> 10,> 10,> 10,> 10,> 10,> 10,> 10,> 10,> 10,> 10
COC(=O)[C@@H]1COC(C(C)(C)C)N1C(=O)C(c1ccccc1)c1ccccc1 (some centres not stated),> 100,84.7,–,> 100,> 100,> 100,70.4,52.1,> 100,> 100,> 100,> 100,> 100,> 100,> 100,> 100,> 100,81.8,> 100,> 100
O=C1CSC(c2ccccc2O)N1c1nc2cc3sc(N4C(=O)CSC4c4ccccc4O)nc3cc2s1 (configuration not stated),> 100,> 100,–,> 100,> 100,> 100,> 100,> 100,> 100,> 88.1,> 100,> 100,> 100,> 77.5,> 100,> 100,> 100,> 100,> 100,> 100
N=c1oc2ccccc2cc1C(=O)Nc1nccs1,6.3,20,–,> 79.5,> 100,> 100,> 100,7.71,> 100,> 92.3,> 100,43.3,> 50.7,> 95.3,> 100,> 100,> 100,> 86.3,> 100,> 100
CC(C)NC(=O)OCc1c(COC(=O)NC(C)C)c(-c2cc[n+](COC(=O)C(C)C)cc2)n2c1CCC2,> 100,> 100,–,> 100,> 100,> 100,> 100,> 100,> 100,> 100,> 100,> 100,> 100,> 100,> 100,> 100,> 100,> 100,> 100,> 100
COC(=O)N/N=C(\c1ccccc1)c1ccc(OC)cc1,> 100,> 100,–,> 100,> 100,> 100,> 100,> 100,> 100,> 100,> 100,> 100,> 100,> 100,> 100,> 100,> 100,> 100,> 100,> 100
N#CC1CCCCC1NC1(C#N)CCCCC1 (configuration not stated),> 100,> 100,> 100,> 100,> 100,> 100,> 100,> 100,> 100,> 100,> 100,> 100,> 100,> 100,–,–,–,–,–,–
CC(=O)Oc1ccc(/C=C/C(=O)OCCOC(=O)/C=C/c2ccc(OC(C)=O)c(OC(C)=O)c2)cc1OC(C)=O,22.3,6.12,–,45,28.6,33.8,> 100,16.3,25.3,41.5,18.7,> 28.6,37.2,22.6,> 60.1,53,62.7,52.4,28,16.3
CCOC(=O)c1c2ccc(/C=C/c3ccccc3)ccc-2c(C(=O)OCC)c1N,> 100,> 100,> 100,> 100,> 100,> 100,> 100,> 100,> 100,> 100,> 100,> 100,> 100,> 100,> 100,–,–,–,–,–
CCSc1nnc(-c2ccccc2)nc1Cc1ccc(OC)cc1,> 100,> 100,> 100,> 100,> 100,> 100,> 100,> 100,> 100,> 100,> 100,> 100,> 100,> 100,–,–,–,–,–,–
COC(=O)C(Cc1nc2ccccc2[nH]c1=O)C(=O)C(=O)Nc1ccc(F)cc1 (configuration not stated),58.8,> 100,> 100,> 100,> 100,> 100,–,> 100,> 100,> 100,> 100,> 100,> 100,> 100,–,–,–,–,–,–
COc1ccc(/C=C2\CCc3cc(OC)c(OC)cc3C2=O)cc1,> 10,> 10,–,> 10,> 10,> 10,> 10,> 10,> 10,> 10,> 10,> 10,> 10,> 10,> 10,> 10,> 10,> 10,> 10,> 10
Cc1cccc(C)c1N1C(=O)C2c3[nH]c4ccccc4c3C3CCC(C(C)(C)C)CC3C2C1=O (configuration not stated),20.8,45.1,–,23.4,14.9,24.2,32.7,23.6,32,41,39.8,30.3,33.8,37.5,55.9,38.2,44,24.4,> 100,48.8
O=C(O)COc1ccc(C(=O)/C(SS/C(C(=O)c2ccc(OCC(=O)O)c(Cl)c2Cl)=C2\C=C(c3ccccc3Cl)SS2)=C2/C=C(c3ccccc3Cl)SS2)c(Cl)c1Cl,36.7,33.5,> 65.4,> 89.3,> 100,> 54.6,> 49,28.5,> 68,47.3,60.2,53,> 95.7,> 83.1,> 100,–,–,–,–,–
COc1c(C)c(O)c2c(c1C)OC(c1ccccc1)CC2=O (configuration not stated),> 100,> 100,> 100,> 100,> 100,> 100,> 100,> 100,> 100,> 100,> 100,> 100,> 100,–,> 100,–,–,–,–,–
CCOC(=O)CC(NCc1ccc(N=Cc2nc3ccc(C(F)(F)F)cc3nc2-c2ccccc2)cc1)C(=O)OCC (configuration not stated),> 100,> 100,> 100,> 100,> 100,> 100,> 100,> 100,> 100,> 100,> 100,> 100,> 80.6,> 100,> 100,–,–,–,–,–
Nc1nnc2oc3ccc4ccccc4c3cc1-2,> 100,> 100,–,> 100,77.4,> 100,> 100,> 100,> 100,80.7,> 100,> 100,> 100,> 100,> 100,> 100,> 100,97.1,> 100,> 100
CCCCc1ccc(Nc2nc(Cl)c3ncn(C4CC(Oc5ccc(C)cc5)C(COc5ccc(C)cc5)O4)c3n2)cc1 (configuration not stated),> 100,> 100,–,> 100,> 100,> 100,> 100,> 100,> 100,> 100,> 100,> 100,> 100,> 100,> 100,> 100,> 100,> 100,> 100,> 100
NCCNCCCNC(=O)c1cc(-c2ccccc2)nc2ccccc12,61.8,51.2,–,> 100,34.4,> 100,54.9,> 100,28.3,> 100,> 100,> 100,> 100,51.5,> 100,> 100,> 100,> 100,43.5,> 100

# From PubChem BioAssay (NCI)
